# In US20200348280A1, “METHODS FOR PREDICTING CANCER DRUG RESPONSIVENESS” (Eutropics Pharmaceuticals, Inc., priority 2018, published 2020):
# Key:
# [1] = tested on: SEV-Bcl-xL-Bim cells; assay: Flow cytometry HSBXB/Bcl-xL signal ratio in SEV-Bcl-xL-Bim cells; format: cell-based, human; conditions: 2 hours semi-permeabilized or 16 hours intact cells, flow cytometry (FIG. 14)
# Description: In FIG. 14A, human seminal endothelial vesicle cells overexpressing ectopic Bcl-xL and Bim (SEV-Bcl-xL-Bim[ref]) were treated with A-1155463 at the indicated concentrations for 2 hours in semi-permeabilized cells, fixed, and then […] HSBXB or Bcl-xL antibody corrected to IgG-2A isotype. The ratio of the signals (y-axis) were collected flow cytometry. In FIG. 14B, intact SEV-Bcl-xL/Bim cells were treated with A-1155463 for 16 hours, fixed and stained as in FIG. 14A. The ratio of HSBXB and Bcl-xL signal was calculated as a percentage as shown below: […]
# [2] = target: T1, Bcl-xL/Bim heterodimer in Bcl-xL expressing ATH66 cells (Homo sapiens, UniProt Q07817); assay: Flow cytometry HSBXB/Bcl-xL signal after BH3 mimetic treatment; format: cell-based
# T1 construct: endogenous in cells; host or cells: ATH66 cells
# Text: FIG. 8 consists of two graphs that show how the Bcl-xL selective BH3 mimetic (A1155463) shifts the HSBXB heterodimer signal detected in cancer cells. For each series, the left bar is HSBXB signal and the right bar is total Bcl-xL. […] The term “I/C” on the x-axis of the graph refers to “isotype control.” and the term “CC” on the x-axis of the graph refers to the non-stained or “clean control.” The signal was detected using Flow Cytometry.
# In these experiments, Bcl-xL expressing ATH66 cells were treated with the compound for 16 hours, then fixed with paraformaldehyde, permeabilized with non-ionic detergent and stained with HSBXB-FITC and with anti-Bcl-xL-Rhodamine. The signals were resolved using flow cytometry. The ratio of the signals provided the Bcl-xL priming index.
# [3] = tested on: HCC1937 cells; assay: Immunofluorescence localization of Bcl-xL and HSBXB; format: cell-based, human; conditions: IF (FIG. 19)
# Description: A quantitative analysis was performed using the software Zen 2011 (Blue edition, Carl Zeiss). For each panel, the bar at the far left is Mito-BCL-XL, the next bar is Mito-HSBXB, the next bar is Bcl-XL-HSBXB, the next bar is Bcl-XL-DAPI, and the bar on the far right is HSBXB-DAPI. […] Immunofluorescence (IF) stainings of the HSBXB antibody and the Bcl-XL inhibitor, A-1331852, are shown in FIG. 17 in untreated human breast cancer cells, HCC1937 and BT-474. IF stainings and relative signal intensity were obtained from human breast cancer cells, HCC1937, treated with or without the A-1331852 inhibitor, or treated with or without the HSBXB antibody, as shown in FIG. 18.
# [4] = tested on: HCC1937; assay: Drug response (cell viability) in breast cancer cells; format: cell-based; conditions: HCC1937 human breast cancer cells
# Text: (§1) FIG. 16A, and FIG. 16B are graphs showing drug response to A1331852 in breast cancer (BC) cells.
# (§2) Drug response to the Bcl-xL inhibitor, A-1331852, or the MEK inhibitor, Selumetinib, was compared in two types of human breast cancer cells, HCC1937 and BT-474, as shown in FIG. 16A and FIG. 16B. […] Immunofluorescence (IF) stainings of the HSBXB antibody and the Bcl-XL inhibitor, A-1331852, are shown in FIG. 17 in untreated human breast cancer cells, HCC1937 and BT-474. IF stainings and relative signal intensity were obtained from human breast cancer cells, HCC1937, treated with or without the A-1331852 inhibitor, or treated with or without the HSBXB antibody, as shown in FIG. 18.
# [5] = tested on: BT-474; assay: as above; format: cell-based; conditions: BT-474 human breast cancer cells
# Text: as §1, §2
# [6] = target: T2, Bcl-xL-GST/Bim BH3 heterodimer (Homo sapiens, UniProt Q07817); assay: ELISA, inhibition of HSBXB signal on non-covalent Bcl-xL-GST/Bim BH3 heterodimer; format: binding; conditions: heterodimers formed with peptide comprising the BH3 domain of Bim; compound added after peptides, before antibody
# T2 construct: cloned and mutated to delete their transmembrane domains; made in house; host or cells: E. coli BL21
# Description: (§3) To further characterize HSBXB, the antibody was assessed under conditions where Bcl-xL/Bim binding, mediated by the BH3 domain of Bim, was inhibited. […] In the experiment shown in FIG. 13A, Bcl-xL-GST was bound to glutathione-coated ELISA plates. Bim-BH3 peptide was then added, or not added as a control, and HSBXB antibody was used to detect complex formation. […] Non-covalent Bcl-xL-GST/Bim BH3 heterodimer was bound to glutathione-coated ELISA plates and treated with ABT-263. ABT-263 was then added to the ELISA plates after addition of peptides and before adding the monoclonal antibody.
# [7] = target: T3, Bcl-xL-GST/Full length BIM protein (Homo sapiens, UniProt Q07817); assay: ELISA, inhibition of HSBXB signal on Bcl-xL-GST/full length BIM heterodimer; format: binding; conditions: heterodimers formed with full length Bim protein
# T3 construct: cloned and mutated to delete their transmembrane domains; made in house; host or cells: E. coli BL21
# T3 sequence (Q07817 1-209 limits assumed): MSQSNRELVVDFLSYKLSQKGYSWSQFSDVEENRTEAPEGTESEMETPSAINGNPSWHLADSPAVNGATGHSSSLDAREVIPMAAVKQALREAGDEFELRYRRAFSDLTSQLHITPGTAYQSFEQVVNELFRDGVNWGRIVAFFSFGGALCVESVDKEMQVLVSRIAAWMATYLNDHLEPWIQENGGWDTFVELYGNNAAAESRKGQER
# Description: The compound was added to the ELISA plates after addition of peptides and before adding the monoclonal antibody.
# as §3
# T1 sequence (Q07817 whole entry, species assumed, one chain of several): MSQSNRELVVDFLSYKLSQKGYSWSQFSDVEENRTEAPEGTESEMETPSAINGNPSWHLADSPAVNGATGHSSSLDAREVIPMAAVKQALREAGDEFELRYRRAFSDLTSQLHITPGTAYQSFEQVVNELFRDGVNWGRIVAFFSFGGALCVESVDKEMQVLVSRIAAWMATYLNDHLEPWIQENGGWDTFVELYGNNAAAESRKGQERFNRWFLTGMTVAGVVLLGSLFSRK
# T2 sequence (Q07817 1-209 limits assumed, one chain of several): as the sequence (Q07817 1-209 limits assumed) above
structure (smiles),measurement,setting,value
CN(C)CC#Cc1ccc(OCCCc2sc(N3CCc4cccc(C(=O)Nc5nc6ccccc6s5)c4C3)nc2C(=O)O)c(F)c1 [A-1155463],HSBXB signal (ratio of HSBXB and Bcl-xL signal),[1],HSBXB signal shifts
same,Bcl-xL priming index (ratio of HSBXB-FITC and anti-Bcl-xL-Rhodamine signals),"[2]; ATH66 cells treated for 16 hours, flow cytometry",diminish over a time course that coincided with the occurrence of apoptosis
same,HSBXB heterodimer signal,"[2]; sub-lethal dose, 16 hours, flow cytometry (FIG. 8)",lose signal after 16 hours
Cc1c(-c2ccc(N3CCc4cccc(C(=O)Nc5nc6ccccc6s5)c4C3)nc2C(=O)O)cnn1CC12CC3CC(CC(C3)C1)C2 [A-1331852],localization of Bcl-xL and HSBXB,[3],Changes in the localization of Bcl-xL and HSBXB
same,cell viability,[4],decrease in cell viability
same,cell viability,[5],decrease in cell viability
CC1(C)CCC(c2ccc(Cl)cc2)=C(CN2CCN(c3ccc(C(=O)NS(=O)(=O)c4ccc(N[C@H](CCN5CCOCC5)CSc5ccccc5)c(S(=O)(=O)C(F)(F)F)c4)cc3)CC2)C1 [ABT-263],inhibition of heterodimer antibody (HSBXB) signal,[6],dose-dependent inhibition of heterodimer antibody signal
same,inhibition of heterodimer antibody (HSBXB) signal,[7],dose-dependent inhibition of heterodimer antibody signal
